Results: patent publication US20160326142A1, “PYRAZOLE CARBOXAMIDE COMPOUNDS, COMPOSITIONS AND METHODS OF USE” (Genentech, Inc., priority 2012, published 2016)

Each compound was assayed against T1, ITK (Homo sapiens, UniProt Q08881) (assay: ITK enzyme assay (Caliper or LCMS peptide phosphorylation)). Conditions: purified ITK (Invitrogen PV3875), 20 μM ATP, Ki by Morrison's quadratic equation.
T1 construct: purchased Invitrogen PV3875
T1 sequence (Q08881 1-620): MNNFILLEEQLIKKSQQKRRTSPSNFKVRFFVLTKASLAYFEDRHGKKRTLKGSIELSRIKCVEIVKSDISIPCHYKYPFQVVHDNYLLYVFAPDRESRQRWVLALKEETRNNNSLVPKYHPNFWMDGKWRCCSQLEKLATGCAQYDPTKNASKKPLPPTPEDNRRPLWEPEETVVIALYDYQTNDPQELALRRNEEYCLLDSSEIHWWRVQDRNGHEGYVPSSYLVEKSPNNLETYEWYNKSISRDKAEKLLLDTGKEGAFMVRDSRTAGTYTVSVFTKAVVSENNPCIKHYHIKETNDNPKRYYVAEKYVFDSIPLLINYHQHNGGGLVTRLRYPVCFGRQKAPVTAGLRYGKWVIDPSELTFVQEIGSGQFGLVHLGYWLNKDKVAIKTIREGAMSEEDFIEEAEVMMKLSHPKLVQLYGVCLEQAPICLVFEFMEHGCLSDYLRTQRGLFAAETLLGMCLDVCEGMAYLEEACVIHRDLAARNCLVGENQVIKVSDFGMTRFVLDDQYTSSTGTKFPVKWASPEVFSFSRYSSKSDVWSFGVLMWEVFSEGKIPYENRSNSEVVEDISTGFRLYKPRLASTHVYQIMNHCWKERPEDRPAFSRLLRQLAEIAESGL
Assay type: biochemical
How it was run: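 Ki values come from Morrison quadratic fits of activity versus inhibitor concentration, adjusted for ATP-competitive inhibition against ATP/Km,app. Substrate and phosphopeptide from purified ITK reactions were resolved either microfluidically (Caliper, EDTA stop) or by LC-MS MRM (TCA stop).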
In the case of `CC(c1cncs1)n1cc(NC(=O)c2n[nH]c3c2CCC(C)(C)C3)cn1` (single isomer, unassigned) [Example 98b, 6,6-dimethyl-N-(1-(1-(thiazol-5-yl)ethyl)-1H-pyrazol-4-yl)-4,5,6,7-tetrahydro-1H-indazole-3-carboxamide], the Ki is reported as 2 nM.
`CCC(c1cnn(CC)c1)n1cc(NC(=O)c2n[nH]c3c2CCC(C)(C)C3)cn1` (single isomer, unassigned) [Example 99a, N-(1-(1-(1-ethyl-1H-pyrazol-4-yl)propyl)-1H-pyrazol-4-yl)-6,6-dimethyl-4,5,6,7-tetrahydro-1H-indazole-3-carboxamide] showed a Ki of 4 nM.
Compound `CCC(c1cnn(CC)c1)n1cc(NC(=O)c2n[nH]c3c2CCC(C)(C)C3)cn1` (single isomer, unassigned) [Example 99b, N-(1-(1-(1-ethyl-1H-pyrazol-4-yl)propyl)-1H-pyrazol-4-yl)-6,6-dimethyl-4,5,6,7-tetrahydro-1H-indazole-3-carboxamide] has a Ki of 4 nM.
Compound `CCn1cc(C(C)n2cc(NC(=O)c3n[nH]c4c3CCC(C)(C)C4)cn2)cn1` (single isomer, unassigned) [Example 100a, N-(1-(1-(1-ethyl-1H-pyrazol-4-yl)ethyl)-1H-pyrazol-4-yl)-6,6-dimethyl-4,5,6,7-tetrahydro-1H-indazole-3-carboxamide] has a Ki of 17 nM.
Compound `CCn1cc(C(C)n2cc(NC(=O)c3n[nH]c4c3CCC(C)(C)C4)cn2)cn1` (single isomer, unassigned) [Example 100b, N-(1-(1-(1-ethyl-1H-pyrazol-4-yl)ethyl)-1H-pyrazol-4-yl)-6,6-dimethyl-4,5,6,7-tetrahydro-1H-indazole-3-carboxamide] has a Ki of 7 nM.
Work on `Cc1nnc(C(C)n2cc(NC(=O)c3n[nH]c4c3CCC(C)(C)C4)cn2)o1` (single isomer, unassigned) [Example 101a, 6,6-dimethyl-N-(1-(1-(5-methyl-1,3,4-oxadiazol-2-yl)ethyl)-1H-pyrazol-4-yl)-4,5,6,7-tetrahydro-1H-indazole-3-carboxamide] yielded a Ki of 41 nM.
Work on `Cc1nnc(C(C)n2cc(NC(=O)c3n[nH]c4c3CCC(C)(C)C4)cn2)o1` (single isomer, unassigned) [Example 101b, 6,6-dimethyl-N-(1-(1-(5-methyl-1,3,4-oxadiazol-2-yl)ethyl)-1H-pyrazol-4-yl)-4,5,6,7-tetrahydro-1H-indazole-3-carboxamide] yielded a Ki of 12 nM.
Work on `CC1(C#N)CCc2c(C(=O)Nc3cnn(Cc4ccccc4)c3)n[nH]c2C1` (single isomer, unassigned) [Example 102a, N-(1-benzyl-1H-pyrazol-4-yl)-6-cyano-6-methyl-4,5,6,7-tetrahydro-1H-indazole-3-carboxamide] yielded a Ki of 300 nM.
For `CC1(C#N)CCc2c(C(=O)Nc3cnn(Cc4ccccc4)c3)n[nH]c2C1` (single isomer, unassigned) [Example 102b, N-(1-benzyl-1H-pyrazol-4-yl)-6-cyano-6-methyl-4,5,6,7-tetrahydro-1H-indazole-3-carboxamide], the Ki was 10 nM.
In the case of `CC(c1ncco1)n1cc(NC(=O)c2n[nH]c3c2CCC(C)(C)C3)cn1` (single isomer, unassigned) [Example 103a, 6,6-dimethyl-N-(1-(1-(oxazol-2-yl)ethyl)-1H-pyrazol-4-yl)-4,5,6,7-tetrahydro-1H-indazole-3-carboxamide], the Ki is reported as 20 nM.
Compound `CC(c1ncco1)n1cc(NC(=O)c2n[nH]c3c2CCC(C)(C)C3)cn1` (single isomer, unassigned) [Example 103b, 6,6-dimethyl-N-(1-(1-(oxazol-2-yl)ethyl)-1H-pyrazol-4-yl)-4,5,6,7-tetrahydro-1H-indazole-3-carboxamide] has a Ki of 9 nM.
For `O=C(Nc1cnn(Cc2ccccc2)c1)c1n[nH]c2c1CCC1(CCCC1=O)C2` (single isomer, unassigned) [Example 105a, N-(1-benzyl-1H-pyrazol-4-yl)-2-oxo-1′,4′,5′,7′-tetrahydrospiro[cyclopentane-1,6′-indazole]-3′-carboxamide], the Ki was 3 nM.
In the case of `O=C(Nc1cnn(Cc2ccccc2)c1)c1n[nH]c2c1CCC1(CCCC1=O)C2` (single isomer, unassigned) [Example 105b, N-(1-benzyl-1H-pyrazol-4-yl)-2-oxo-1′,4′,5′,7′-tetrahydrospiro[cyclopentane-1,6′-indazole]-3′-carboxamide], the Ki is reported as 240 nM.
With `CC(c1cccnc1)n1cc(NC(=O)c2n[nH]c3c2CCC(C)(C)C3)cn1` (single isomer, unassigned) [Example 106a, 6,6-dimethyl-N-(1-(1-(pyridin-3-yl)ethyl)-1H-pyrazol-4-yl)-4,5,6,7-tetrahydro-1H-indazole-3-carboxamide] the Ki was 3 nM.
Work on `CC(c1cccnc1)n1cc(NC(=O)c2n[nH]c3c2CCC(C)(C)C3)cn1` (single isomer, unassigned) [Example 106b, 6,6-dimethyl-N-(1-(1-(pyridin-3-yl)ethyl)-1H-pyrazol-4-yl)-4,5,6,7-tetrahydro-1H-indazole-3-carboxamide] yielded a Ki of 5 nM.
`CC(c1ccncc1)n1cc(NC(=O)c2n[nH]c3c2CCC(C)(C)C3)cn1` (single isomer, unassigned) [Example 107a, 6,6-dimethyl-N-(1-(1-(pyridin-4-yl)ethyl)-1H-pyrazol-4-yl)-4,5,6,7-tetrahydro-1H-indazole-3-carboxamide] showed a Ki of 18 nM.
Compound `CC(c1ccncc1)n1cc(NC(=O)c2n[nH]c3c2CCC(C)(C)C3)cn1` (single isomer, unassigned) [Example 107b, 6,6-dimethyl-N-(1-(1-(pyridin-4-yl)ethyl)-1H-pyrazol-4-yl)-4,5,6,7-tetrahydro-1H-indazole-3-carboxamide] has a Ki of 14 nM.
In the case of `CC(c1cncc(F)c1)n1cc(NC(=O)c2n[nH]c3c2CCC(C)(C)C3)cn1` (single isomer, unassigned) [Example 108a, N-(1-(1-(5-fluoropyridin-3-yl)ethyl)-1H-pyrazol-4-yl)-6,6-dimethyl-4,5,6,7-tetrahydro-1H-indazole-3-carboxamide], the Ki is reported as 17 nM.
Work on `CC(c1cncc(F)c1)n1cc(NC(=O)c2n[nH]c3c2CCC(C)(C)C3)cn1` (single isomer, unassigned) [Example 108b, N-(1-(1-(5-fluoropyridin-3-yl)ethyl)-1H-pyrazol-4-yl)-6,6-dimethyl-4,5,6,7-tetrahydro-1H-indazole-3-carboxamide] yielded a Ki of 5 nM.
`COc1ccc(C(C)n2cc(NC(=O)c3n[nH]c4c3CCC(C)(C)C4)cn2)cn1` (single isomer, unassigned) [Example 109a, N-(1-(1-(6-methoxypyridin-3-yl)ethyl)-1H-pyrazol-4-yl)-6,6-dimethyl-4,5,6,7-tetrahydro-1H-indazole-3-carboxamide] showed a Ki of 4 nM.
`COc1ccc(C(C)n2cc(NC(=O)c3n[nH]c4c3CCC(C)(C)C4)cn2)cn1` (single isomer, unassigned) [Example 109b, N-(1-(1-(6-methoxypyridin-3-yl)ethyl)-1H-pyrazol-4-yl)-6,6-dimethyl-4,5,6,7-tetrahydro-1H-indazole-3-carboxamide] was tested, and the Ki was 21 nM.
`CC1(C)CCc2c(C(=O)Nc3cnn(C(c4cccc(C#N)c4)C4CCS(=O)(=O)CC4)c3)n[nH]c2C1` (single isomer, unassigned) [Example 110a, N-(1-((3-cyanophenyl)(1,1-dioxidotetrahydro-2H-thiopyran-4-yl)methyl)-1H-pyrazol-4-yl)-6,6-dimethyl-4,5,6,7-tetrahydro-1H-indazole-3-carboxamide] showed a Ki of 0.2 nM.
Work on `CC1(C)CCc2c(C(=O)Nc3cnn(C(c4cccc(C#N)c4)C4CCS(=O)(=O)CC4)c3)n[nH]c2C1` (single isomer, unassigned) [Example 110b, N-(1-((3-cyanophenyl)(1,1-dioxidotetrahydro-2H-thiopyran-4-yl)methyl)-1H-pyrazol-4-yl)-6,6-dimethyl-4,5,6,7-tetrahydro-1H-indazole-3-carboxamide] yielded a Ki of 3 nM.
`CC1(C)CCc2c(C(=O)Nc3cnn(C(c4ccccc4)C4CCOCC4)c3)n[nH]c2C1` (single isomer, unassigned) [Example 113a, 6,6-dimethyl-N-(1-(phenyl(tetrahydro-2H-pyran-4-yl)methyl)-1H-pyrazol-4-yl)-4,5,6,7-tetra hydro-1H-indazole-3-carboxamide] gave a Ki of 5 nM.
Compound `CC1(C)CCc2c(C(=O)Nc3cnn(C(c4ccccc4)C4CCOCC4)c3)n[nH]c2C1` (single isomer, unassigned) [Example 113b, 6,6-dimethyl-N-(1-(phenyl(tetrahydro-2H-pyran-4-yl)methyl)-1H-pyrazol-4-yl)-4,5,6,7-tetra hydro-1H-indazole-3-carboxamide] has a Ki of 0.3 nM.
With `Cn1ccnc1C(c1cccs1)n1cc(NC(=O)c2n[nH]c3c2CCC(C)(C)C3)cn1` (single isomer, unassigned) [Example 114a, 6,6-dimethyl-N-(1-((1-methyl-1H-imidazol-2-yl)(thiophen-2-yl)methyl)-1H-pyrazol-4-yl)-4,5,6,7-tetrahydro-H-indazole-3-carboxamide] the Ki was 0.8 nM.
